The text below walks through data of the NIST ThermoML archive (doi:10.1016/j.jct.2008.02.003).

Structures are written as SMILES. ± gives the expanded uncertainty stated by the source.

The nature of series [1]: Molar enthalpy of transition or fusion. To be noted: Crystal; DSC.
For series [2] the following is noted: Crystal; DTA.
Series [3] is described as follows: molar enthalpy of vaporization or sublimation. To be noted: 298.15 K, Calvet microcalorimetry.

On to `COc1cc(Cl)cc(Cl)c1` [3,5-dichloroanisole], for which the “Molar enthalpy of transition or fusion” value in series [1] amounted to 23.7 ± 0.62 kJ/mol. The Normal melting temperature in series [2] was 37.37 ± 0.39 °C. Moreover, in series [3] (Crystal), the molar enthalpy is 79 ± 3 kJ/mol.

For `COc1ccc(Cl)cc1Cl` [2,4-dichloro-1-methoxybenzene], in series [3] (Liquid), the molar enthalpy came out at 62.8 ± 1.4 kJ/mol.

Take `COc1c(Cl)cccc1Cl` [2,6-dichloroanisole]: in series [3] (Liquid), the molar enthalpy worked out at 56.1 ± 1.4 kJ/mol.

With `COc1cccc(Cl)c1Cl` [1,2-dichloro-3-methoxybenzene], the “Molar enthalpy of transition or fusion” value in series [1] is 22 ± 0.5 kJ/mol. In series [2], the Normal melting temperature is 30.99 ± 0.39 °C. For the same molecule, in series [3] (Crystal), the molar enthalpy amounted to 83.6 ± 3 kJ/mol.
